Tests used:
γ-GTP [1] = target: T1, γ-GTP (Bacillus subtilis, UniProt P54422); experiment: Inhibition of γ-GTP by inhibitors (irreversible / reversible); type: biochemical; design: Das Enzym kommt in Mikroorganismen periplasmatisch und extrazellulär vor; endogenous in cells; host or cells: Bacteria cultured in nutrient medium (genera Pseudomonas, Proteus, Arthrobacter, Bacillus); preferred Bac. subtilis IFO 3025; conditions: in the presence of the substance; kind of inhibition (irreversible or reversible)
γ-GTP [2] = target: T1, γ-GTP; experiment: Enzymatic hydrolysis of α-aminoadipinyl cephalosporins by γ-GTP enzyme concentrate (preparative conversion); type: biochemical, Bac. subtilis IFO 3025; design: Das so gewonnene Kulturfiltrat enthält 1350 U γ-GTP-Aktivität; endogenous in cells; host or cells: Bacillus subtilis IFO 3025 (natural producer); Culture filtrate, ammonium sulfate precipitation, DEAE-cellulose
Procedure: Analog Beispiel 1 wird eine Vorkultur mit Bac. subtilis IFO 3025 angezogen. 50 ml dieser Kultur dienen als Inokulum für 2 l Hauptkulturlösung in einem 5 l-Fermenter. Die Anzucht des Stammes erfolgt bei 34°C und einem Sauerstoffpartialdruck von 70 %. Die Bildung der γ-GTP wird photometrisch verfolgt und die Kultur bei maximalem Enzymtiter abgeerntet. Unter den gegebenen Bedingungen wird ein γ-GTP-Titer von 150 mU/ml Kulturlösung erreicht.
9 l Kulturlösung werden mittels Cross-Flow-Filtration (Ausschlußgrenze 300 000 Dalton) in Kulturfiltrat und Zellmasse getrennt. Das so gewonnene Kulturfiltrat enthält 1350 U γ-GTP-Aktivität.
Durch Zugabe von Ammoniumsulfat ad 70 % d. S. wird das Enzym gefällt und in einem 1/10 des Volumens wieder aufgenommen. Nach Dialyse gegen 20 mM Tris, pH 8,0, wird über eine DEAE-Cellulose Säule (DE 52, Whatman) das Enzym weiter gereinigt. Die aktiven Eluate werden vereinigt und konzentriert. Ein so gewonnenes γ-GTP-Präparat (mit ca. 25 U γ-GTP/ml) wird für die Umsetzungen verwendet.
Für eine präparative Umsetzung von Desacetyl-CPC wird folgender Ansatz gewählt: 100 µl Enzymkonzentrat, hergestellt nach Beispiel 3, und 100 µl 40 mM Desacetyl-CPC, gelöst in 20 mM Kaliumphosphatpuffer, pH 7,3 werden bei einer Temperatur von 33°C inkubiert. […]

[3] = substrate: N[C@@H](CCC(=O)Nc1ccc([N+](=O)[O-])cc1)C(=O)O; experiment: Km determination of γ-GTP with L-γ-Glutamylparanitroanilid as substrate; type: biochemical; conditions: other: substrate of γ-GTP, pH 8, 37.0 °C

Row | Molecule | Hemmung der γ-GTP (γ-GTP [1]) | further results
1 | CC(=O)OCC1=C(C(=O)O)N2C(=O)[C@@H](N)[C@H]2SC1 [7-Aminocephalosporansäure] | reversible Hemmung | 
2 | N[C@H](CCCC(=O)N[C@@H]1C(=O)N2C(C(=O)O)=C(CO)CS[C@H]12)C(=O)O [Desacetyl-CPC] |  | Desacetyl-7-Aminocephalosporansäure formed (γ-GTP [2]; 100 µl enzyme concentrate + 100 µl 40 mM substrate in 20 mM potassium phosphate buffer pH 7,3, 33°C): ≤ 16%
3 | CC(=O)OCC1=C(C(=O)O)N2C(=O)[C@@H](NC(=O)CCC[C@@H](N)C(=O)O)[C@H]2SC1 [CPC, Cephalosporin C] |  | 7-Aminocephalosporansäure released (γ-GTP [2]; incubation conditions as in Beispiel 4 (pH 7,3, 33°C)): 3%
4 | [N-]=[N+]=CC(=O)OC[C@H](N)C(=O)O [Azaserin] | irreversibel gehemmt | 
5 | [Hg] [Quecksilber] | reversible Hemmung | 
6 | NC(=O)CI [Jodacetamid] | irreversibel gehemmt | 
7 | [Cu] [Kupfer] | reversible Hemmung | 
8 | γ-Glutamyltranspeptidase (γ-GTP) (Bacillus subtilis subsp. subtilis str. 168) (protein, Das Enzym kommt in Mikroorganismen periplasmatisch und extrazellulär vor; endogenous in cells; host or cells: Bacteria cultured in nutrient medium (genera Pseudomonas, Proteus, Arthrobacter, Bacillus); preferred Bac. subtilis IFO 3025) chain 1: DEYKQVDVGKDGMVATAHPLASEIGADVLKKGGNAIDAAVAIQFALNVTEPMMSGIGGGGFMMVYDGKTKDTTIIDSRERAPAGATPDMFLDENGKAIPFSERVTKGTAVGVPGTLKGLEEALDKWGTRSMKQLITPSIKLAEKGFPIDSVLAEAISDYQEKLSRTAAKDVFLPNGEPLKEGDTLIQKDLAKTFKLIRSKGTDAFYKGKFAKTLSDTVQDFGGSMTEKDLENYDITIDEPIWGDYQGYQIATTPPPSSGGIFLLQMLKILDHFNLSQYDVRSWEKYQLLAETMHLSYADRASYAGDPEFVNVPLKGLLHPDYIKERQQLINLDQVNKKPKAGDPWKYQEGSANYKQVEQPKDKVEGQ chain 2: TTHFTVADRWGNVVSYTTTIEQLFGTGIMVPDYGVILNNELTDFDAIPGGANEVQPNKRPLSSMTPTILFKDDKPVLTVGSPGGATIISSVLQTILYHIEYGMELKAAVEEPRIYTNSMSSYRYEDGVPKDVLSKLNGMGHKFGTSPVDIGNVQSISIDHENGTFKGVADSSRNGAAIGINLKRK |  | Km [3]: 17,8 µM
